Where “and” joins values, the source holds several entries; their conditions need not be identical. Equal values may be shown once.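 In this assay, cells in 96-well plates receive the compound at five concentrations for 48 hours. Endpoints are linearly interpolated between the surrounding concentrations. GI50 = concentration required for 50% inhibition of growth. The concentration for full growth arrest is given as TGI.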
What was measured:
Test in all cases: NCI tumour cell line growth inhibition, 48 h
SF-539 CNS = test system: SF-539 CNS
U251 CNS = test system: U251 CNS
A498 renal = test system: A498 renal
HOP-92 NSCLC = test system: HOP-92 NSCLC
SN12C renal = test system: SN12C renal
KM12 colon = test system: KM12 colon
SNB-19 CNS = test system: SNB-19 CNS
OVCAR-3 ovarian = test system: OVCAR-3 ovarian

SMILES | TGI (SF-539 CNS) [µM] | TGI (U251 CNS) [µM] | TGI (A498 renal) [µM] | TGI (HOP-92 NSCLC) | TGI (SN12C renal) [µM] | TGI (KM12 colon) | TGI (SNB-19 CNS) [µM] | TGI (OVCAR-3 ovarian) [µM] | GI50 (U251 CNS) [µM] | GI50 (A498 renal) [µM] | GI50 (SN12C renal) [µM] | GI50 (KM12 colon) [µM] | GI50 (SNB-19 CNS) [µM] | GI50 (OVCAR-3 ovarian) [µM]
COc1ccc(-c2cc(-c3cc(C)ccc3O)[nH]c(=O)n2)cc1 | > 100 | > 100 | > 100 | > 100 µM | > 100 | > 100 µM | > 100 | > 100 |  |  |  |  |  | 
O=C1OC(c2ccccc2)=N/C1=C\c1cc(Cl)ccc1Cl | > 100 | > 100 | > 100 | > 100 µM | > 100 | > 100 µM | > 100 |  |  |  |  |  |  | 
COC1OC(COS(=O)(=O)c2ccc(C)cc2)C(O)C(OS(=O)(=O)c2ccc(C)cc2)C1OS(=O)(=O)c1ccc(C)cc1 (centres undefined) | > 100 | > 100 |  |  | > 100 | > 100 µM | > 100 | > 100 |  |  |  |  |  | 
CCOC(=O)C(=O)Nc1c(C)cccc1C(C)C | > 100 | > 100 | > 100 | > 100 µM | > 100 | > 100 µM | > 100 | > 100 |  |  |  |  |  | 
COC(=O)CS(=O)c1ccccc1 (centres undefined) | 44.1 | 98.6 | > 100 | > 100 µM | 40.4 | > 100 µM | > 100 | > 100 |  |  |  |  |  | 
O=C(O)c1cccc2cccc(C(=O)O)c12.[Hg] |  | 26.8 | 32.3 |  | 27.7 | 32.4 µM | 29.7 | 30 | 12.2 | 18.3 | 14.6 | 18.3 | 15.9 | 15.3
COC(=O)C1=C(CS(=O)c2ccc([N+](=O)[O-])cc2[N+](=O)[O-])ON(C)C1c1ccccc1 (centres undefined) | 56.2 | > 78.6 | > 100 |  | > 63.3 | > 100 µM | > 87.9 | > 100 |  |  |  |  |  | 
COC(=O)C(Cc1ccccc1)NC(=O)Cn1ccnc1[N+](=O)[O-] (centres undefined) | > 100 | > 100 | > 100 | > 100 µM | > 100 | > 100 µM | > 100 |  |  |  |  |  |  | 
CCOC(=O)N[C@@H]1C2CC(=O)C(O2)[C@@H]1OC (some centres undefined) | > 100 | > 100 |  | > 100 µM | > 100 | > 100 µM | > 100 | > 100 |  |  |  |  |  | 
NC(=O)Nc1c([N+](=O)[O-])cc(C(F)(F)F)cc1[N+](=O)[O-] | > 100 | > 100 | > 100 | > 100 µM | > 100 | > 100 µM | > 100 | 82.5 |  |  |  |  |  | 
NCCCNCCSSC/C=C\CSSCCNCCCN | > 100 | > 100 | > 100 | 86.3 µM and 84.5 µM | > 100 | 38.7 µM and 36.3 µM | > 100 | > 100 |  |  |  |  |  | 
Cc1ccc(C(=O)C#Cc2c[nH]c(=O)[nH]c2=O)cc1 | 15.5 | 28.2 | 28 | 33.3 µM | 16.2 | 28.2 µM | 43 | 29.8 |  |  |  |  |  | 
CCCCCCCCCCCCCCCCCC(=O)OCC(C[As](=O)(O)O)OC(=O)CCCCCCCCCCCCCCCCC (centres undefined) | > 100 | > 100 | > 100 | 40.4 µM | > 100 | > 100 µM | 77.4 | > 100 |  |  |  |  |  | 
CN(C)C1=NC2=S(SC(Nc3ccccc3)=N2)S1 (centres undefined) | 60.6 | > 100 | 46.1 | 59.8 µM | > 100 | > 100 µM | 97.9 |  |  |  |  |  |  | 
O=C(c1nc2ccc(Cl)cc2[nH]c1=O)C(O)c1ccc2c(c1)OCO2 (centres undefined) |  | > 100 | > 100 | > 100 µM |  | > 100 µM |  |  |  |  |  |  |  | 
COC(=O)C1=C(c2ccc3c(c2)OCO3)OC(c2ccc3c(c2)OCO3)C1 (centres undefined) | > 100 | > 100 | > 100 | > 100 µM | > 100 | > 100 µM |  | > 100 |  |  |  |  |  | 
CCC1CC(C)=CCN1S(=O)(=O)c1ccc(C)cc1 (centres undefined) | 39.8 |  | > 100 |  | 24.3 | 70.8 µM | > 100 | 44.9 |  |  |  |  |  | 
COc1ccc(NC(=O)CC(=O)N2N=C(N(CCC#N)c3cccc(C)c3)CC2c2ccccc2)cc1 (centres undefined) | > 100 | > 100 |  | > 100 µM | > 100 | > 100 µM | > 100 | > 100 |  |  |  |  |  | 
COc1cc(Nc2nc3cc(C(F)(F)F)ccc3nc2-c2ccccc2)cc(OC)c1OC | > 100 | > 100 | > 100 | 20.7 µM | > 100 | > 100 µM |  | > 100 |  |  |  |  |  | 
CCOC(=O)NC(=O)c1cn(CCCOC(=O)NCCCCCCNC(=O)OCCCn2cc(C(=O)NC(=O)OCC)c(=O)[nH]c2=O)c(=O)[nH]c1=O | 44.5 | 33.6 | 44.1 | 45.6 µM | > 100 |  | 77.6 | 42.4 |  |  |  |  |  | 
O=NN/C(=C1\Nc2ccc([N+](=O)[O-])cc2NC1=O)C(O)c1ccc([N+](=O)[O-])cc1 (centres undefined) | > 100 | > 100 |  | > 100 µM | > 100 | > 100 µM | > 100 | > 100 |  |  |  |  |  | 

Source: PubChem BioAssay (NCI)
